This is an account of results in article PMC6713189, “Dual and selective inhibitors of pteridine reductase 1 (PTR1) and dihydrofolate reductase-thymidylate synthase (DHFR-TS) from Leishmania chagasi” (Journal of Enzyme Inhibition and Medicinal Chemistry, 2019).

Several values for one entry are separate records, joined by “and”; a condition that tells them apart may be missing. Equal entries are not always repeated. Where two headings read alike, the source gives them in different places. Some results are limits rather than exact numbers.

Experiment [1] has as its target T1, LcPTR1 (Leishmania infantum, UniProt A4I067). The experiment is described as follows: LcPTR1 inhibition assay (single concentration and IC50, NADPH consumption at 340 nm). Type of experiment: biochemical. The following applies: for Ki: obtained from Cheng-Prussov equation for competitive inhibitors; for Selectivity Ki LcPTR1/ Ki LcDHFR-TS: ratio of Ki values. As to the method: (§1) Kinetic measurements were performed according to the protocol described[32] via spectrophotometer (Shimadzu UV-1800) at pH 4.7 (20 mM sodium acetate). NADPH consumption was monitored spectrophotometrically (340 nm) at constant temperature (30 °C). The variation of the absorbance monitored for 60 s was used to calculate the initial rate of the reaction by linear regression.
(§2) Comparison of the enzymatic activities in the absence and presence of the compounds (50 μM), which were dissolved in DMSO (5% v/v final concentration), was employed to calculate the percent inhibition (Equation (1)) (1) % Inhibition=100 − (Vi/Vc)×100 where Vi is the initial velocity in the presence of the inhibitor and Vc is the reaction rate in the presence of DMSO (5% (v/v)).
(§3) The results of this analysis were plotted in double-reciprocal graphs for visual analysis purposes only.

Experiment [2] deals with T2, LcDHFR-TS (Leishmania infantum, UniProt Q8MQV3). Put plainly: LcDHFR-TS inhibition assay (single concentration and IC50, NADPH consumption at 340 nm). Format: biochemical. The following applies: for IC50: DHF 5.0 µM, NADPH 5.0 µM, pH 7.0, >50 from single-concentration assay; for Ki: obtained from Cheng-Prussov equation for competitive inhibitors. As to the method: (§4) Kinetic measurements were carried out using a standard assay, at pH 7.0 (50 mM sodium phosphate). Briefly, NADPH consumption was monitored spectrophotometrically ([…]) (Shimadzu® UV-1800, Columbia MD, USA) at constant temperature (25 °C) and the absorbance variation within the first 30 s was employed to calculate the initial rate of reaction, by linear regression of the raw data.
as §2, §3

Experiment [3] concerns the target T1, LcPTR1. Put plainly: Determination of the inhibition mechanism, LcPTR1. Type of experiment: biochemical.
Excerpt: as §3

Experiment [4] has as its target T2, LcDHFR-TS. Put plainly: Determination of the inhibition mechanism, LcDHFR-TS. Type of experiment: biochemical.
Excerpt: as §3

Experiment [5] concerns the target T2, LcDHFR-TS. Put plainly: LcDHFR-TS apparent Km determination. Type of experiment: biochemical, Leishmania chagasi. As to the method:
as §4
The effect of the pH (5.0–8.0) over enzymatic activity was investigated with 0.2 μM of LcDHFR-TS and saturating NADPH and DHF concentrations (100 μM) (50 mM citrate buffer was used for pH 5.0 activity assay. 50 mM sodium phosphate buffer was used for pH range 6.0 to 8.0 activity assay). […] All the measurements were carried out in triplicate and the apparent Km values for the cofactor and substrate were determined under a pseudo first-order kinetics assumption using least-squares non-linear regression method, as available in the GraphPad Prism version 5.0 for Windows (GraphPad® Software, San Diego, CA, USA, www.graphpad.com).

In experiment [6] the test system is DHFR-TS. The settings on record: read-out: Km app for L. tropica DHFR-TS; cited from earlier work.
Experiment [7] deals with DHFR-TS. The settings on record: read-out: Km app for L. major DHFR-TS; cited from earlier work.
The target in experiment [8] is T1, LcPTR1. Format: biochemical, Leishmania chagasi. The settings on record: restated without unit; read-out: Km app for LcPTR1. As to the method: as §1
Another experiment has as its system LdPTR1. On the set-up: method as in PMID 21115787. The following applies: double-reciprocal plot, His-tag fused protein; read-out: Km app for LdPTR1; cited from earlier work.
For a further experiment, the system named is L. tropica PTR1. On the set-up: method as in PMID 10415124. The settings on record: cited from earlier work.
Another experiment has as its system L. major PTR1. The settings on record: cited from earlier work.
The subject of a further experiment is L. tarantoleae PTR1. On the set-up: method as in PMID 10415124. The following applies: read-out: Km app for L. tarantoleae PTR1; cited from earlier work.
Where [9] appears, read: pH 7.0, 25 °C, other substrate saturating.
Setting [10] is: pH 7.0, 25 °C, other substrate saturating, read-out: Km app for LcDHFR-TS.
Where [11] appears, read: restated without unit, read-out: Km app for LcDHFR.

T1 sequence (A4I067 entry or part of it): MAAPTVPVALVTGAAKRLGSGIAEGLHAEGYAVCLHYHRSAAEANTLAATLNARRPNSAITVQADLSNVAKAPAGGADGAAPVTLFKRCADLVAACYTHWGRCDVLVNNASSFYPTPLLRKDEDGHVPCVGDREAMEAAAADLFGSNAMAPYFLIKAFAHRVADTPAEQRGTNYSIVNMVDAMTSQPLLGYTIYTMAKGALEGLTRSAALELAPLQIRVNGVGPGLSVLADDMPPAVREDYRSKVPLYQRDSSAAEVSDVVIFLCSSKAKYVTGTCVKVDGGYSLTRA
T2 sequence (Q8MQV3 entry or part of it): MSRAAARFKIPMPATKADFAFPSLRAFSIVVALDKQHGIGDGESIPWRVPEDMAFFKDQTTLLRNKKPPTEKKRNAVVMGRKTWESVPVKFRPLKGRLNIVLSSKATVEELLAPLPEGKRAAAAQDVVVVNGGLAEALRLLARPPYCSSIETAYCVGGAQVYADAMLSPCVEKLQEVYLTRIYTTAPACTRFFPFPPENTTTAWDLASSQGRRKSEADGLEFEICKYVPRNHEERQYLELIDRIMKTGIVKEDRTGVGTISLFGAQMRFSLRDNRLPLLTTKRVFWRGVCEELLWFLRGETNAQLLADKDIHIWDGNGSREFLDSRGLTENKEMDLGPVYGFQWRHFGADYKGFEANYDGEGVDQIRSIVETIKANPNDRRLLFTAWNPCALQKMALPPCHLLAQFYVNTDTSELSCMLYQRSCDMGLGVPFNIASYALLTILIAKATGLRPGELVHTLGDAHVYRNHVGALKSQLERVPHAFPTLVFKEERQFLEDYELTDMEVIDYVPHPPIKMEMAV

Take `Nc1nc(N)c(Cc2ccccc2)c(CCCc2ccccc2)n1` [Compound 1]: the IC50 against LcPTR1 [1] came out at 3000 nM; on LcDHFR-TS [2] it was 1650 nM. In addition, the Ki worked out at 1500 nM on LcPTR1 [1] and 280 nM at LcDHFR-TS [2]. Also, the inhibition at 50 µM at LcPTR1 [1] (pH 4.7) was determined as 90 ± 1%; at LcDHFR-TS [2] (pH 7), 100 ± 1.17%. Further, on LcPTR1 [1], the “Selectivity Ki LcPTR1/ Ki LcDHFR-TS” value is 5.4 and 5.45. Further, the “mechanism of inhibition with respect to biopterin” value on LcPTR1 [3] is “competitive”. Also, at LcPTR1 [3], the “mechanism of inhibition with respect to the cofactor NADPH” value was “uncompetitive”. The figures for the “NADPH Vmax app in presence of inhibitor” value at LcDHFR-TS [4] (compound 1 at 2 µM) and on LcDHFR-TS [4] (compound 1 at 5 µM) were 1.0 ± 0.1 nmol/min/mL and 0.5 ± 0.05 nmol/min/mL, respectively. Further, on LcDHFR-TS [4] (not affected by increasing concentrations of compound 1), the “DHF Vmax app in presence of inhibitor” value amounted to 1.9 ± 0.1 nmol/min/mL. Moreover, the “mechanism of inhibition related to cofactor NADPH” value on LcDHFR-TS [4] (saturating DHF 12.5 µM, varying NADPH) is “noncompetitive”. For the same compound, on LcDHFR-TS [4] (saturating NADPH 50 µM, varying DHF), the “mechanism of inhibition related to substrate DHF” value is listed as “competitive”.
For `Nc1nc(N)c(Cc2ccccc2)c(CC2CCCCC2)n1` [Compound 2], at LcPTR1 [1], the IC50 is 4100 nM, the affinity corresponds to a Ki of 2050 nM and the “Selectivity Ki LcPTR1/ Ki LcDHFR-TS” value worked out at 0.68. The inhibition at 50 µM against LcPTR1 [1] (pH 4.7) is 40 ± 1%. At LcDHFR-TS [2], this compound showed a half-inhibitory concentration (IC50) of 18000 nM and a Ki of 3000 nM. At LcDHFR-TS [2] (pH 7), this compound displayed an inhibition at 50 µM of 20 ± 2.4%.
Consider `COc1ccccc1CCc1nc(N)nc(N)c1Cc1ccccc1` [Compound 3], for which, at LcPTR1 [1], the IC50 is 4600 nM; the Ki worked out at 2300 nM; the “Selectivity Ki LcPTR1/ Ki LcDHFR-TS” value is 3.3 and 3.29. Also, the LcPTR1 inhibition entry on LcPTR1 [1] (pH 4.7) was “active”. On LcDHFR-TS [2], this compound yielded an IC50 of 4200 nM and an inhibition constant Ki of 700 nM. Besides, the LcDHFR-TS inhibition result at LcDHFR-TS [2] (pH 7) is “active”.
In turn, `CC(C)Cc1ccc(C(C)c2nc(N)nc(N)c2-c2ccccc2)cc1` (centres unmarked) [Compound 4] returned an IC50 at LcPTR1 [1] of 66300 ± 9010 nM. Besides, the inhibition at 50 µM at LcPTR1 [1] (pH 4.7) turned out to be 40 ± 1%; against LcDHFR-TS [2] (pH 7) it was 20 ± 2.4%.
Take `Nc1nc(N)c2ccccc2n1` [Compound 5]: the 50% inhibitory concentration (IC50) on LcPTR1 [1] was 940 nM; against LcDHFR-TS [2], more than 50000 nM. The Ki is 470 nM at LcPTR1 [1] and more than 8330 nM at LcDHFR-TS [2]. In addition, the values for the inhibition at 50 µM at LcPTR1 [1] (pH 4.7) and against LcDHFR-TS [2] (pH 7) were 98 ± 0.8% and 20 ± 2.4%, respectively. Moreover, the selectivity index at LcPTR1 [1] (selective LcPTR1 inhibitor, LcPTR1 over LcDHFR-TS (abstract)) came out at 20. Further, the “mechanism of inhibition with respect to biopterin” value on LcPTR1 [3] is recorded as “competitive”. At LcPTR1 [3], the “mechanism of inhibition with respect to the cofactor NADPH” value is given as “uncompetitive”.
Regarding `Nc1nc(=O)c2c([nH]1)NCC(CNc1ccc(C(=O)N[C@@H](CCC(=O)O)C(=O)O)cc1)=N2` [DHF], at LcDHFR-TS [5] (setting [9]), the “Vmax app for LcDHFR-TS” value was determined as 2.0 ± 0.11 nmol/min/mL. The Km was 1 ± 0.2 µM on LcDHFR-TS [5] (setting [10]), 1 µM at LcDHFR-TS [5] (setting [11]), 1.5 µM in the experiment on DHFR-TS [6] and 1.6 µM in the experiment on DHFR-TS [7].
As for `NC(=O)C1=CN([C@@H]2O[C@H](COP(=O)(O)OP(=O)(O)OC[C@H]3O[C@@H](n4cnc5c(N)ncnc54)[C@H](OP(=O)(O)O)[C@@H]3O)[C@@H](O)[C@H]2O)C=CC1` [NADPH], the Km on LcPTR1 [8] is 37.5 µM; at LcDHFR-TS [5] (setting [10]), 2.3 ± 0.5 µM; at LcDHFR-TS [5] (setting [11]) it was 2.3 µM; in the experiment with LdPTR1 it was 18.5 µM; in the experiment on L. tropica PTR1, 19 µM; in the experiment with L. major PTR1, 6.7 µM. In addition, the Km in the experiment on L. tarantoleae PTR1 is 19 µM; in the experiment on DHFR-TS [6], 2.7 µM; in the experiment with DHFR-TS [7], 0.45 µM. The “Vmax app for LcDHFR-TS” value at LcDHFR-TS [5] (setting [9]) was determined as 1.6 ± 0.1 nmol/min/mL.
Regarding biopterin, the Km with LdPTR1 is 5.8 µM; in the experiment on L. tropica PTR1 it was 3.5 µM; with L. major PTR1, 4.6 µM; in the experiment with L. tarantoleae PTR1 it was 3.5 µM.

Broadly, the IC50 is the point on the concentration scale where inhibition reaches its midpoint. Higher therefore signals weaker potency in that assay. What is called Ki is the equilibrium dissociation constant of an inhibitor or competing ligand from its target. Higher therefore signals a looser hold on the target. What is called inhibition is the percentage by which the read-out fell short of the control. A higher inhibition goes with strong suppression. As usually defined, the Km is the concentration of substrate that gives half-maximal velocity.
